Measurements: patent US12077503B2, “Substituted cyclic amides and their use as herbicides” (FMC CORPORATION, priority 2015, dated 2024)

Legend:
Type in all cases: in vivo
[1] = test system: velvetleaf (Abutilon theophrasti); assay: Test G Post-Emergence Protocol; details: Abutilon theophrasti, post-emergence, 312 h; for pest or weed control at 15.625 g/ha: 15.625 g ai/ha, evaluated after 13 days (100=total damage to plant; 0=no damage to plant), read-out: Velvetleaf damage rating; for pest or weed control at 62.5 g/ha: 62.5 g ai/ha, read-out: Velvetleaf damage rating (100=total damage to plant; 0=no damage to plant); for pest or weed control at 62.5 g/ha / pest or weed control at 250 g/ha: evaluated after 13 days; for pest or weed control at 250 g/ha: 250 g ai/ha, read-out: damage to plant, Velvetleaf (100=total damage to plant; 0=no damage to plant)
Method in brief: (§1)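 A glasshouse post-emergence test: 8-day-old plants sprayed at 15.625, 62.5 or 250 g/ha, then grown at 24/16 °C day/night with 14 h light and 65% humidity. Damage rated 13 days later, 0–100.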

[2] = test system: barnyardgrass (Echinochloa crus-galli); assay: Test G Post-Emergence Protocol; details: Echinochloa crus-galli, post-emergence, 312 h; for pest or weed control at 15.625 g/ha: 15.625 g ai/ha, evaluated after 13 days (100=total damage to plant; 0=no damage to plant), read-out: Barnyardgrass damage rating; for pest or weed control at 62.5 g/ha: 62.5 g ai/ha, read-out: Barnyardgrass damage rating (100=total damage to plant; 0=no damage to plant); for pest or weed control at 62.5 g/ha / pest or weed control at 250 g/ha: evaluated after 13 days; for pest or weed control at 250 g/ha: 250 g ai/ha, read-out: damage to plant, Barnyardgrass (100=total damage to plant; 0=no damage to plant)
Method in brief: as §1

[3] = test system: ivy-leaved morning glory (Ipomoea hederacea); assay: Test G Post-Emergence Protocol; details: Ipomoea, post-emergence, 312 h; for pest or weed control at 15.625 g/ha: 15.625 g ai/ha, evaluated after 13 days (100=total damage to plant; 0=no damage to plant), read-out: Morningglory, Ivy-leaved damage rating; for pest or weed control at 62.5 g/ha: 62.5 g ai/ha, read-out: Morningglory, Ivy-leaved damage rating (100=total damage to plant; 0=no damage to plant); for pest or weed control at 62.5 g/ha / pest or weed control at 250 g/ha: evaluated after 13 days; for pest or weed control at 250 g/ha: 250 g ai/ha, read-out: damage to plant, Morningglory, Ivy-leaved (100=total damage to plant; 0=no damage to plant)
Method in brief: as §1

corn (Zea mays) [4] = assay: Test G Post-Emergence Protocol; details: Zea mays, post-emergence, 312 h; for plant injury at 15.625 g/ha: 15.625 g ai/ha, evaluated after 13 days (100=total damage to plant; 0=no damage to plant), read-out: Corn damage rating; for plant injury at 62.5 g/ha: 62.5 g ai/ha, read-out: Corn damage rating (100=total damage to plant; 0=no damage to plant); for plant injury at 62.5 g/ha / plant injury at 250 g/ha: evaluated after 13 days; for plant injury at 250 g/ha: 250 g ai/ha, read-out: damage to plant, Corn (100=total damage to plant; 0=no damage to plant)
Method in brief: as §1

[5] = test system: giant foxtail (Setaria faberi); assay: Test G Post-Emergence Protocol; details: Setaria faberi, post-emergence, 312 h; for pest or weed control at 15.625 g/ha: 15.625 g ai/ha, evaluated after 13 days (100=total damage to plant; 0=no damage to plant), read-out: Foxtail, Giant damage rating; for pest or weed control at 62.5 g/ha: 62.5 g ai/ha, read-out: Foxtail, Giant damage rating (100=total damage to plant; 0=no damage to plant); for pest or weed control at 62.5 g/ha / pest or weed control at 250 g/ha: evaluated after 13 days; for pest or weed control at 250 g/ha: 250 g ai/ha, read-out: damage to plant, Foxtail, Giant (100=total damage to plant; 0=no damage to plant)
Method in brief: as §1

[6] = test system: redroot pigweed (Amaranthus retroflexus); assay: Test G Post-Emergence Protocol; details: Amaranthus retroflexus, post-emergence, 312 h; for pest or weed control at 15.625 g/ha: 15.625 g ai/ha, evaluated after 13 days (100=total damage to plant; 0=no damage to plant), read-out: Pigweed, Redroot damage rating; for pest or weed control at 62.5 g/ha: 62.5 g ai/ha, read-out: Pigweed, Redroot damage rating (100=total damage to plant; 0=no damage to plant); for pest or weed control at 62.5 g/ha / pest or weed control at 250 g/ha: evaluated after 13 days; for pest or weed control at 250 g/ha: 250 g ai/ha, read-out: damage to plant, Pigweed, Redroot (100=total damage to plant; 0=no damage to plant)
Method in brief: as §1

[7] = test system: velvetleaf (Abutilon theophrasti); assay: Test G Pre-Emergence Protocol; details: Abutilon theophrasti, pre-emergence, 312 h, evaluated after 13 days; for pest or weed control at 15.625 g/ha: 15.625 g ai/ha; for pest or weed control at 15.625 g/ha / pest or weed control at 250 g/ha: read-out: Velvetleaf damage rating (100=total damage to plant; 0=no damage to plant); for pest or weed control at 62.5 g/ha: 62.5 g ai/ha, 100=total damage to plant, 0=no damage to plant, read-out: plant damage rating, Velvetleaf; for pest or weed control at 250 g/ha: 250 g ai/ha
Method in brief: (§2)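 Scores are visual damage ratings from 0 (no damage) to 100 (total plant kill), taken 13 days after treatment. Compound was sprayed one day post-sowing at 15.625, 62.5 or 250 g/ha in 50:50 acetone/water with 0.5% Tween 20.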

[8] = test system: barnyardgrass (Echinochloa crus-galli); assay: Test G Pre-Emergence Protocol; details: Echinochloa crus-galli, pre-emergence, 312 h, evaluated after 13 days; for pest or weed control at 15.625 g/ha: 15.625 g ai/ha, read-out: Barnyard grass damage rating (100=total damage to plant; 0=no damage to plant); for pest or weed control at 62.5 g/ha: 62.5 g ai/ha, 100=total damage to plant, 0=no damage to plant, read-out: plant damage rating, Barnyardgrass; for pest or weed control at 250 g/ha: 250 g ai/ha, read-out: Barnyardgrass damage rating (100=total damage to plant; 0=no damage to plant)
Method in brief: as §2

[9] = test system: ivy-leaved morning glory (Ipomoea hederacea); assay: Test G Pre-Emergence Protocol; details: Ipomoea, pre-emergence, 312 h, evaluated after 13 days; for pest or weed control at 15.625 g/ha: 15.625 g ai/ha, read-out: Morning-glory, Ivy-leaved damage rating (100=total damage to plant; 0=no damage to plant); for pest or weed control at 62.5 g/ha: 62.5 g ai/ha, 100=total damage to plant, 0=no damage to plant, read-out: plant damage rating, Morningglory, Ivy-leaved; for pest or weed control at 250 g/ha: 250 g ai/ha, read-out: Morningglory, Ivy-leaved damage rating (100=total damage to plant; 0=no damage to plant)
Method in brief: as §2

corn (Zea mays) [10] = assay: Test G Pre-Emergence Protocol; details: Zea mays, pre-emergence, 312 h, evaluated after 13 days; for plant injury at 15.625 g/ha: 15.625 g ai/ha; for plant injury at 15.625 g/ha / plant injury at 250 g/ha: read-out: Corn damage rating (100=total damage to plant; 0=no damage to plant); for plant injury at 62.5 g/ha: 62.5 g ai/ha, 100=total damage to plant, 0=no damage to plant, read-out: plant damage rating, Corn; for plant injury at 250 g/ha: 250 g ai/ha
Method in brief: as §2

[11] = test system: giant foxtail (Setaria faberi); assay: Test G Pre-Emergence Protocol; details: Setaria faberi, pre-emergence, 312 h, evaluated after 13 days; for pest or weed control at 15.625 g/ha: 15.625 g ai/ha; for pest or weed control at 15.625 g/ha / pest or weed control at 250 g/ha: read-out: Foxtail, Giant damage rating (100=total damage to plant; 0=no damage to plant); for pest or weed control at 62.5 g/ha: 62.5 g ai/ha, 100=total damage to plant, 0=no damage to plant, read-out: plant damage rating, Foxtail, Giant; for pest or weed control at 250 g/ha: 250 g ai/ha
Method in brief: as §2

[12] = test system: redroot pigweed (Amaranthus retroflexus); assay: Test G Pre-Emergence Protocol; details: Amaranthus retroflexus, pre-emergence, 312 h, evaluated after 13 days; for pest or weed control at 15.625 g/ha: 15.625 g ai/ha; for pest or weed control at 15.625 g/ha / pest or weed control at 250 g/ha: read-out: Pigweed, Redroot damage rating (100=total damage to plant; 0=no damage to plant); for pest or weed control at 62.5 g/ha: 62.5 g ai/ha, 100=total damage to plant, 0=no damage to plant, read-out: plant damage rating, Pigweed, Redroot; for pest or weed control at 250 g/ha: 250 g ai/ha
Method in brief: as §2

Row | Structure (SMILES) | pest or weed control at 15.625 g/ha [1] [%] | pest or weed control at 62.5 g/ha [1] [%] | pest or weed control at 250 g/ha [1] [%] | pest or weed control at 15.625 g/ha [2] [%] | pest or weed control at 62.5 g/ha [2] [%] | pest or weed control at 250 g/ha [2] [%] | pest or weed control at 15.625 g/ha [3] [%] | pest or weed control at 62.5 g/ha [3] [%] | pest or weed control at 250 g/ha [3] [%] | plant injury at 15.625 g/ha (corn (Zea mays) [4]) [%] | plant injury at 62.5 g/ha (corn (Zea mays) [4]) [%] | plant injury at 250 g/ha (corn (Zea mays) [4]) [%] | pest or weed control at 15.625 g/ha [5] [%] | pest or weed control at 62.5 g/ha [5] [%] | pest or weed control at 250 g/ha [5] [%] | pest or weed control at 15.625 g/ha [6] [%] | pest or weed control at 62.5 g/ha [6] [%] | pest or weed control at 250 g/ha [6] [%] | pest or weed control at 15.625 g/ha [7] [%] | pest or weed control at 62.5 g/ha [7] [%] | also measured
1 | Cc1cccc(NC(=O)[C@@H]2C(=O)N(C)C[C@H]2c2ccc(C(F)(F)F)cc2)c1[N+](=O)[O-] (racemic) [Compound 1636] | 0 | 0 | 0 | 10 | 50 | 50 | 0 | 0 | 0 | 0 | 0 | 0 | 50 | 70 | 70 | 0 | 0 | 0 | 0 | 0 | pest or weed control at 250 g/ha [7]: 0%; pest or weed control at 15.625 g/ha [8]: 0%; pest or weed control at 62.5 g/ha [8]: 10%; pest or weed control at 250 g/ha [8]: 30%; pest or weed control at 15.625 g/ha [9]: 0%; pest or weed control at 62.5 g/ha [9]: 0%; pest or weed control at 250 g/ha [9]: 0%; plant injury at 15.625 g/ha (corn (Zea mays) [10]): 0%; plant injury at 62.5 g/ha (corn (Zea mays) [10]): 0%; plant injury at 250 g/ha (corn (Zea mays) [10]): 0%; pest or weed control at 15.625 g/ha [11]: 0%; pest or weed control at 62.5 g/ha [11]: 40%; pest or weed control at 250 g/ha [11]: 60%; pest or weed control at 15.625 g/ha [12]: 0%; pest or weed control at 62.5 g/ha [12]: 0%; pest or weed control at 250 g/ha [12]: 0%
2 | CN1C[C@@H](c2ccc(C(F)(F)F)cc2)[C@H](C(=O)Nc2ccnc(C(F)(F)F)c2)C1=O (racemic) [Compound 1638] | 0 | 0 | 0 | 0 | 0 | 0 | 0 | 0 | 0 | 0 | 0 | 0 | 0 | 0 | 0 | 0 | 0 | 0 | 0 | 0 | pest or weed control at 250 g/ha [7]: 0%; pest or weed control at 15.625 g/ha [8]: 0%; pest or weed control at 62.5 g/ha [8]: 0%; pest or weed control at 250 g/ha [8]: 0%; pest or weed control at 15.625 g/ha [9]: 0%; pest or weed control at 62.5 g/ha [9]: 0%; pest or weed control at 250 g/ha [9]: 0%; plant injury at 15.625 g/ha (corn (Zea mays) [10]): 0%; plant injury at 62.5 g/ha (corn (Zea mays) [10]): 0%; plant injury at 250 g/ha (corn (Zea mays) [10]): 0%; pest or weed control at 15.625 g/ha [11]: 0%; pest or weed control at 62.5 g/ha [11]: 0%; pest or weed control at 250 g/ha [11]: 0%; pest or weed control at 15.625 g/ha [12]: 0%; pest or weed control at 62.5 g/ha [12]: 0%; pest or weed control at 250 g/ha [12]: 0%
3 | COc1nccc(NC(=O)[C@@H]2C(=O)N(C)C[C@H]2c2ccc(C(F)(F)F)cc2)n1 (racemic) [Compound 1640] | 0 | 0 | 0 | 0 | 0 | 0 | 0 | 0 | 0 | 0 | 0 | 0 | 0 | 0 | 0 | 0 | 0 | 0 | 0 | 0 | pest or weed control at 250 g/ha [7]: 0%; pest or weed control at 15.625 g/ha [8]: 0%; pest or weed control at 62.5 g/ha [8]: 0%; pest or weed control at 250 g/ha [8]: 0%; pest or weed control at 15.625 g/ha [9]: 0%; pest or weed control at 62.5 g/ha [9]: 0%; pest or weed control at 250 g/ha [9]: 0%; plant injury at 15.625 g/ha (corn (Zea mays) [10]): 0%; plant injury at 62.5 g/ha (corn (Zea mays) [10]): 0%; plant injury at 250 g/ha (corn (Zea mays) [10]): 0%; pest or weed control at 15.625 g/ha [11]: 0%; pest or weed control at 62.5 g/ha [11]: 0%; pest or weed control at 250 g/ha [11]: 0%; pest or weed control at 15.625 g/ha [12]: 0%; pest or weed control at 62.5 g/ha [12]: 0%; pest or weed control at 250 g/ha [12]: 0%
